Like-named read-outs stand apart in the source and are kept apart here.
Tests used:
S1P5 = S1P5 (Homo sapiens, UniProt Q9H228); experiment: [35S]-GTPγS binding assay, S1P5; assay type: biochemical; settings: membranes of CHO cells expressing recombinant S1P receptors; for Emax: control S1P, read-out: S1P5 % Efficacy
Protocol: (§1) Cell Membrane Preparations
(§2) CHO cells expressing recombinant S1P receptors were cultured 500 cm^2 culture trays and once confluent, rinsed and detached with cell-lifting buffer (10 mM HEPES, 154 mM NaCl, 6.85 mM EDTA, pH 7.4). Cells were then pelleted by centrifugation, resuspended, and homogenized in membrane preparation buffer (10 mM HEPES and 10 mM EDTA, pH 7.4) using a Polytron PT 1200E homogenizer (Kinematica, Luzern, Switzerland). Cellular proteins were pelleted by centrifugation at 48,000×g at 4° C. for 30 minutes. The resulting supernatant was discarded, and the pellet was re-suspended again in membrane preparation buffer, homogenized for a second time and then centrifuged again as described above. The final cellular protein pellet was suspended in ice cold resuspension buffer (10 mM HEPES and 0.1 mM EDTA, pH 7.4), divided into aliquots, and stored at −80° C. until use.
(§3) Binding assays for [^35S]-GTPγS were performed in 96-well non-binding surface plates with a final volume of 200 μL. The test compounds were serial diluted in DMSO and added to assay plates using a Tecan D300E digital printer with a total volume of 0.4 μL. The control sphingosine-1-phosphate (S1P) was prepared separately by preparing a 400 μM stock solution from a 100 nmol pellet of S1P in 10 mM Na2CO3 with 2% β-cyclodextrin. The serial dilution of S1P was done using complete assay buffer (20 mM HEPES, 10 mM MgCl2, 100 mM NaCl, 1 mM EDTA, 0.1% fatty acid free bovine serum albumin [BSA], and 30 μg/mL saponin, pH7.4) and transferred to wells already containing 0.4 μL DMSO. All the wells were then loaded to a total volume of 40 μL of complete assay buffer, except the non-specific binding (NSB) wells. For NSB wells, 40 µL/well of 50 μM GTPγS (Sigma Aldrich, cat #G8634, St. Louis, MO) was added to wells containing 0.4 μL of DMSO. The assay was started by the addition of 120 μL/well of CHO—S1P receptor membrane solution containing 40 μg/mL of membrane protein, 16.67 μM guanosine diphosphate (GDP; Sigma Aldrich, cat #G7127, St. Louis, MO), and 2.5 mg/mL of WGA PVT SPA beads in complete buffer. Assay plates were then sealed and incubated at room temperature with gentle agitation for 30 minutes. Next, 40 μL/well of 1 nM of [^35S]-GTPγS (PerkinElmer, cat #NEG030X250UC, Waltham, MA) in basic assay buffer (20 mM HEPES, 10 mM MgCl2, 100 mM NaCl, and 1 mM EDTA, pH7.4) was added to the assay plates to yield a final concentration of […] and the plates were further incubated for 40 minutes at room temperature with gentle agitation. The assay was terminated by centrifugation of the plates at 1000 rpm for 3 minutes using an Eppendorf 5810R centrifuge (Eppendorf, Hamburg, Germany) and G protein bound radioactivity was quantitated using a MicroBeta2 microplate scintillation counter (PerkinElmer, Waltham, MA).

S1P1 = S1P1 (Homo sapiens, UniProt P21453); experiment: [35S]-GTPγS binding assay, S1P1; assay type: biochemical; settings: for Emax: control S1P, read-out: S1P1 % Efficacy
S1P1, sequence (P21453 whole entry, species assumed): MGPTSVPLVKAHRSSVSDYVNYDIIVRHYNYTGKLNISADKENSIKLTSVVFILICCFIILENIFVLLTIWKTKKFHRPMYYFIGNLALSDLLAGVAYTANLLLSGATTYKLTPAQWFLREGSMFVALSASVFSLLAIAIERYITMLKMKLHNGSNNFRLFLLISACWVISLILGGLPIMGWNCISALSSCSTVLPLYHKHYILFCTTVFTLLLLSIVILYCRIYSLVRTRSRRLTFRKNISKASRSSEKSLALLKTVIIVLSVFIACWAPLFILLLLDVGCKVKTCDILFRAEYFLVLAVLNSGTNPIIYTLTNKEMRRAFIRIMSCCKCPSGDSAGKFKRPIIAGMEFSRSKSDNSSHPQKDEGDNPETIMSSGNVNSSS
Protocol: as §1, §2, §3

[1] = membranes of CHO cells expressing recombinant S1P receptors, [35S]-GTPγS binding
[2] = membranes of CHO cells expressing recombinant S1P receptors, [35S]-GTPγS binding, read-out: S1P1 EC50

S1P5, sequence (Q9H228 whole entry, species assumed): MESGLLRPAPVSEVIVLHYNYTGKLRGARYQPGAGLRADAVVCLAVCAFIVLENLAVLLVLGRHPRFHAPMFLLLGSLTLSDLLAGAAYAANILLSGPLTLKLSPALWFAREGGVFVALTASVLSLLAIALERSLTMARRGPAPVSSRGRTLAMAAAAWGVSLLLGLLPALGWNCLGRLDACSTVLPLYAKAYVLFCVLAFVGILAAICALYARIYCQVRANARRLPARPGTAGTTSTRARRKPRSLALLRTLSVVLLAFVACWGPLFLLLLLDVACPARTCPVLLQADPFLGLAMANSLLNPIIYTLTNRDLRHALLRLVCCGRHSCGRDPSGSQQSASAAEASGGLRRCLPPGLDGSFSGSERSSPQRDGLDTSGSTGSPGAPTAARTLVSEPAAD

Structure (SMILES)	EC50 (S1P5) [nM]	Emax (S1P5) [%]	Emax (S1P1; [1]) [%]	EC50 (S1P1; [2]) [nM]	EC50 (S1P1) [nM]
CC(C)Oc1ccc(-c2nc(-c3cccc4c3CC/C4=N/O)no2)cc1C#N [Compound 10, (Z)-5-(3-(1-(hydroxyimino)-2,3-dihydro-1H-inden-4-yl)-1,2,4-oxadiazol-5-yl)-2-isopropoxybenzonitrile]	6	58	97	4	
CC(C)Oc1ccc(-c2nc(-c3cccc4c3CC/C4=N/OCC(=O)O)no2)cc1C#N [Compound 6, (Z)-2-(((4-(5-(3-cyano-4-isopropoxyphenyl)-1,2,4-oxadiazol-3-yl)-2,3-dihydro-1H-inden-1-ylidene)amino)oxy)acetic acid]	> 2000		90		19
CC(C)Oc1ccc(-c2nc(-c3cccc4c3CC/C4=N/OC(C)(C)C)no2)cc1C#N [Compound 5, (Z)-5-(3-(1-(tert-butoxyimino)-2,3-dihydro-1H-inden-4-yl)-1,2,4-oxadiazol-5-yl)-2-isopropoxybenzonitrile]	78	79	98	20	
CC(C)Oc1ccc(-c2nc(-c3cccc4c3CC/C4=N/OCCN(C)C)no2)cc1C#N [Compound 8]	15	64	90	8	
CC(C)Oc1ccc(-c2nc(-c3cccc4c3CCC4=NOCCC(=O)O)no2)cc1C#N (stereo in doubt) [Compound 7, (E)-3-(((4-(5-(3-cyano-4-isopropoxyphenyl)-1,2,4-oxadiazol-3-yl)-2,3-dihydro-1H-inden-1-ylidene)amino)oxy)propanoic acid]	30	29	89	336	
CC(C)Oc1ccc(-c2nc(-c3cccc4c3CC/C4=N/OCCCC(=O)O)no2)cc1C#N [Compound 11, (Z)-4-(((4-(5-(3-cyano-4-isopropoxyphenyl)-1,2,4-oxadiazol-3-yl)-2,3-dihydro-1H-inden-1-ylidene)amino)oxy)butanoic acid]	80	85	85	6	
